Assay results as given in US11319306B2, “Compositions and methods for treating neurodegenerative diseases” (Azevan Pharmaceuticals, Inc., priority 2014, dated 2022).
Like-named read-outs stand apart in the source and are kept apart here.

Key:
human V1a receptor [1] = molecular target: T1, human V1a receptor (Homo sapiens, UniProt P37288); experiment: Inhibition of phosphatidylinositol turnover (V1a); assay type: cell-based; conditions: inhibition of vasopressin-mediated phosphatidylinositol turnover
T1 construct: host or cells: CHO cells (hV1a cell line)
T1 sequence (P37288 whole entry): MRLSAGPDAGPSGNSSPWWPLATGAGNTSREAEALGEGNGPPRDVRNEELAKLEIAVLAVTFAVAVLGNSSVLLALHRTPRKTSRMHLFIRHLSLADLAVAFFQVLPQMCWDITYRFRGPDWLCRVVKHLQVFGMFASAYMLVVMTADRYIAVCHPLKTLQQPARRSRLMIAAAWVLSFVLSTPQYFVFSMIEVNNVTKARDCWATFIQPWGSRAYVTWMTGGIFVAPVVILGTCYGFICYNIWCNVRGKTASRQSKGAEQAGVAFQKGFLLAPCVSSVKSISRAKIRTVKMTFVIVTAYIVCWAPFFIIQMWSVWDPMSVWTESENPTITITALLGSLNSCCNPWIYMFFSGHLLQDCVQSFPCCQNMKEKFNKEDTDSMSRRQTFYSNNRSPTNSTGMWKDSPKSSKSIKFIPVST
From the text: The physiological effects of vasopressin are mediated through specific G-protein coupled receptors. The vasopressin V1a receptor is coupled to the Gq/G11 family of G proteins and mediates phosphatidylinositol turnover. The agonist or antagonist character of the compounds of the invention may be determined by their ability to inhibit vasopressin-mediated turnover of phosphatidylinositol by the procedure described in the following paragraphs.
Cell culture and labeling of cells.
All assays were in triplicate except for basal and 10 nM AVP (both n=6). AVP ((arginine vasopressin), Peninsula Labs, Belmont, Calif., USA (#8103)) was dissolved in 0.1N acetic acid. Test agents were dissolved in DMSO and diluted in DMSO to 200 times the final test concentration. […] The order of incubations was randomized. Incubations were initiated by removing the prelabeling medium, washing the monolayer once with 1 mL of 0.9% NaCl, and transferring the contents of the assay tubes to corresponding wells. The plates were incubated for 1 hour at 37° C. Incubations were terminated by removing the incubation medium and adding 500 μL of ice cold 5% (w/v) trichloroacetic acid and allowing the wells to stand for 15 min.
BioRad Poly-Prep Econo-Columns were packed with 0.3 mL of AG 1 X-8 100-200 formate form resin. Resin was mixed 1:1 with water and 0.6 mL added to each column. Columns were then washed with 10 mL water. Scintillation vials (20 mL) were placed under each column. For each well, the contents were transferred to a minicolumn, after which the well was washed with 0.5 mL distilled water, which was also added to the minicolumn. The columns were then washed twice with 5 mL of 5 mM myo-inositol to elute free inositol. Aliquots (1 mL) were transferred to 20 mL scintillation vials and 10 mL of Beckman Ready Protein Plus added. After the myo-inositol wash was complete, empty scintillation vials were placed under the columns, and [^3H]inositol phosphates were eluted with three additions of 1 mL 0.5 M ammonium formate containing 0.1 N formic acid. Elution conditions were optimized to recover inositol mono-, bis-, and trisphosphates, without eluting the more metabolically inert tetrakis-, pentakis-, and hexakis-phosphates. To each sample was added 10 mL of a high salt capacity scintillation fluid such as Tru-Count High Salt Capacity or Packard Hionic-Fluor. Inositol lipids were measured by adding 1 mL of 2% sodium dodecyl sulfate (SDS) to each well, allowing the wells to stand for at least 30 min., and transferring the solution to 20 mL scintillation vials, to which 10 mL Beckman Ready Protein Plus scintillation fluid was then added. Samples were counted in a Beckman LS 3801 liquid scintillation counter for 10 min. Total inositol incorporation for each well was calculated as the sum of free inositol, inositol phosphates, and inositol lipids.
Concentration-response curves for AVP and concentration-inhibition curves for test agents versus 10 nM AVP were analyzed by nonlinear least-squares curve-fitting to a 4-parameter logistic function. Parameters for basal and maximal inositol phosphates, EC50 or IC50, and Hill coefficient were varied to achieve the best fit. The curve-fitting was weighted under the assumption that the standard deviation was proportional to dpm of radioactivity.

human V1a receptor [2] = molecular target: T1, human V1a receptor; experiment: Human vasopressin V1a receptor binding assay (3H-AVP competition, hV1a CHO cells); conditions: for IC50: read-out: V1a Binding Affinity IC50
How it was run: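 Whole CHO cells expressing hV1a were incubated with 1 nM 3H-AVP (as printed "InM") and 10-fold dilutions of compound in HEPES/BSA/DMEM buffer, pH 7.0, for 45 min at 37 °C. Non-specific binding was defined with 100 nM cold AVP. Bound radioactivity was SDS-solubilised and counted by scintillation; IC50 from curve fitting.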

C57Bl/6J males = experiment: Social interaction test after chronic social subjugation; assay type: in vivo, mice
From the text: Anti-depressant Effect in the Social Interaction Test. […] A rapid subjugation paradigm in mice lead to diminished social interaction behavior, where the dependent measures are distance traveled and time in the Interaction Zone. A 28-day treatment regimen with chlordiazepoxide (CDP), a standard anxiolytic, had no effect on deficits produced by chronic subordination. Additional details are described in Berton et al. Essential role of BDNF in the mesolimbic dopamine pathway in social defeat stress. Science 311(5762):864-8 (Feb. 10, 2006).
Briefly, C57Bl/6J males are defeated daily for 10 days by resident, highly aggressive CF-1 males. After 5 minutes of direct exposure, a perforated plastic partition is inserted into the cage that allowed olfactory and visual contact without physical defeat for the remaining 23 hr 55 min each day. The C57 males are exposed to a different resident male in a different cage each day to increase the stress of the procedure (it is observed that all CF-1 males attacked the intruder each day). At the end of the 10 day defeat procedure, the C57 males are tested in an open field apparatus during the dark phase. A dominant male is caged in an area of the open field apparatus termed the “social interaction zone.” Time and distance traveled in the zone are recorded. The C57 males are then divided randomly among the following treatments: AVN246-HCl (2 mg/kg), saline vehicle (0.45%), or chlordiazepoxide (10 mg/kg). Treatments are given daily (i.p.) for 28 days and the animals are retested. Behavioral changes are determined by calculating difference scores (Post-Pretest) and these scores are analyzed.

[3] = tested on: Adult male Long Evans rats; experiment: Light/dark shuttle box; assay type: in vivo, rat
Experimental: Anxiolytic Effect in the Light/Dark Shuttle Box. The light/dark shuttle box is a standard and well characterized assay for anxiolytic effects of a test compound. Rats naturally avoid the light side of the box because it is stressful. Increased time on the light side by the treatment group compared to control reflects an anxiolytic effect (Bourin and Hascoet, 2003). Adult male Long Evans rats are administered AVN251 (0.1-2 mg/kg) by oral gavage 90 min prior to testing in a light/dark shuttle box.

awake rats = experiment: Resident-intruder model of stress and aggression in rats, awake fMRI neuroimaging; assay type: in vivo, rat
From the text: Resident-intruder model of stress and aggression in rats. Neuroimaging is used to assess the blockade of stress/arousal with test compound compared to control. The effect of AVN251-HCl on functional circuitry was examined using the imaging method for awake rats. Additional details of the assay are described in Ferris et al. Imaging the neural circuitry and chemical control of aggressive motivation.
Male rats in the company of a female cage mate piloerect in the presence of a male intruder. Piloerection is a sign of stress and aggressive intent and is associated with activation of stress/arousal circuits in the brain. Stress circuit activation in response to an intruder male is assessed by obtaining brain scans viewed from a caudal/dorsal perspective as translucent shells. The localization of activated voxels is mapped as 3D volumes of activation, which are composed of 10 subjects each. Once fully registered and segmented, the statistical responses for each subject are averaged on a voxel-by-voxel basis. Those averaged voxels exceeding a 2.0% threshold are shown in their appropriate spatial location. Functional images are acquired on awake rats at 4.7 T.
Resident male rats from six male/female pairs are imaged while fully awake, and presented with their mate, or their mate+an intruder, a highly stressful stimulus. […] The total volume of brain activation for resident males confronted with their mate alone, mate plus intruder, and mate plus intruder in the presence of AVN251-HCl are viewed as 3D models.
Awake rats are imaged when presented with their mate, or their mate+an intruder. […] In each scan, the dark shaded areas represent activation of vasopressin receptor signaling.

[4] = 3H-AVP competition, CHO cells expressing human V1a
[5] = 3H-AVP competition, CHO cells expressing human V1a, read-out: V1a Ki
[6] = difference score (Post-Pretest), daily i.p. for 28 days

## O=C(NCc1cccc(C(F)(F)F)c1)[C@H](CCC(=O)N1CCN(CCc2ccccc2)CC1)N1C(=O)[C@@H](N2C(=O)OC[C@@H]2c2ccccc2)[C@H]1C=Cc1ccccc1 (single isomer, unassigned) [Example 35]
Human V1a receptor [1]
  agonist or antagonist character: vasopressin V1a antagonists

## O=C(NCc1cccc(C(F)(F)F)c1)C(CCC(=O)N1CCC(N2CCCCC2)CC1)N1C(=O)C(N2C(=O)OCC2c2ccccc2)C1C=Cc1ccccc1 (single isomer, unassigned) [Example 88]
Human V1a receptor [2]; [4]
  IC50: 2.4 nM
Human V1a receptor [2]; [5]
  Ki: 1.45 nM
Human V1a receptor [1]
  agonist or antagonist character: vasopressin V1a antagonists

## O=C(NCc1cccc(C(F)(F)F)c1)C(CCC(=O)N1CCN(C2CCCCC2)CC1)N1C(=O)C(N2C(=O)OCC2c2ccccc2)C1C=Cc1ccccc1 (single isomer, unassigned) [Example 110]
Human V1a receptor [1]
  agonist or antagonist character: vasopressin V1a antagonists

## CNC1=Nc2ccc(Cl)cc2C(c2ccccc2)=[N+]([O-])C1 [CDP, chlordiazepoxide]
C57Bl/6J males; 28-day treatment
  effect on social interaction deficits after chronic subordination: no effect
C57Bl/6J males; [6]
  Distance (traveled in the interaction zone): 1.0 ± 5
  Time (in the interaction zone): 0.0 ± 5

## O=C(NCc1cccc(C(F)(F)F)c1)C(CC(=O)N1CCC(N2CCCCC2)CC1)N1C(=O)C(N2C(=O)OCC2c2ccccc2)C1C=Cc1ccccc1 (stereo not drawn) [Example 44]
Human V1a receptor [2]; [4]
  IC50: 3.1 nM
Human V1a receptor [2]; [5]
  Ki: 1.89 nM
Human V1a receptor [1]
  agonist or antagonist character: vasopressin V1a antagonists

## O=C(NCc1cccc(C(F)(F)F)c1)C(CC(=O)N1CCC(N2CCCCC2)CC1)N1C(=O)C(N2C(=O)OCC2c2ccccc2)C1C=Cc1ccccc1 (stereo not drawn) [Example 133]
Human V1a receptor [2]; [4]
  IC50: 2.43 nM
Human V1a receptor [2]; [5]
  Ki: 1.49 nM
Human V1a receptor [1]
  agonist or antagonist character: vasopressin V1a antagonists

## CN(Cc1cccc(C(F)(F)F)c1)C(=O)[C@@H](CC(=O)N1CCC(N2CCCCC2)CC1)N1C(=O)[C@@H](N2C(=O)OC[C@@H]2c2ccccc2)[C@H]1/C=C/c1ccccc1 [Example 225, 2(R)-[[4-(Piperidinyl)piperidinyl]carbonylmethyl]-2-[3(S)-(4(S)-phenyloxazolidin-2-on-3-yl)-4(R)-(2-styryl)azetidin-2-on-1-yl]acetic acid N-methyl-N-(3-trifluoromethylbenzyl)amide]
[3]; 0.1-2 mg/kg oral gavage 90 min prior to testing
  anxiety compared to vehicle: dose dependent decrease in anxiety
[3]; 1 or 2 mg/kg
  light-dark entries (FIG. 6C): more light-dark entries
[3]; 1 or 2 mg/kg, p<0.01
  time in the dark (FIG. 6B): less time in the dark
  time in the light (FIG. 6A): more time in the light
Human V1a receptor [2]; [5]
  Ki: 0.66 nM
Human V1a receptor [2]; receptor selectivity table, read-out: inhibition data Ki, V1a
  Ki: 0.66 nM
Awake rats; amygdala, cortex, hippocampus, thalamus, mate+intruder
  activation of vasopressin receptor signaling in brain scans (FIG. 4 vs FIG. 3): lower activation of vasopressin receptor signaling than the untreated controls
Awake rats; pretreatment 5 mg/kg 90 minutes before test session, mate + intruder, listed as AVN251
  stress/arousal response in amygdala, cortex, hippocampus and thalamus: blocked the stress/arousal response

## CNCCC(Oc1ccc(C(F)(F)F)cc1)c1ccccc1 (stereo not drawn) [fluoxetine, reference compound]
Awake rats; presentation of novel receptive female
  sexual motivation / mesocorticolimbic dopamine reward system activation: markedly diminishes activation of this circuit
Awake rats; resident male rats, 5 mg/kg oral gavage
  stress circuit activation (BOLD), mate plus intruder: decreased activation of both the stress circuits and the mesocorticolimbic dopamine reward system
